Source: patent publication US10167262B2, “Herbicidal substituted 3-arylpyrazoles” (FMC CORPORATION, priority 2014, dated 2019)
Read-outs that look alike come from different tables or passages of the source.

Columns and labels:
Format in all cases: in vivo
[1] = test system: yellow nutsedge (Cyperus esculentus); test: Test C pre-/postemergence greenhouse test, plant response rating 0-100; conditions: Cyperus; for pest or weed control at 62 g/ha: 62 g ai/ha; for pest or weed control at 125 g/ha: 125 g ai/ha; for pest or weed control at 250 g/ha: 250 g ai/ha
Outline: (§1)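 Scores run from 0, no effect, to 100, complete control, assigned by eye after treated plants and controls spent 13 to 15 days in a greenhouse. Soil-applied treatment went onto freshly sown seed in loam and sand; foliar treatment hit seedlings at the 1- to 4-leaf stage.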

[2] = test system: corn (Zea mays); test: as above; conditions: Zea mays; for Corn plant response rating (crop injury, 0 = no effect, 100 = complete kill) at 250 g/ha: 250 g ai/ha
Outline: as §1

[3] = test system: giant foxtail (Setaria faberii); test: as above; conditions: Setaria faberi; for pest or weed control at 62 g/ha: 62 g ai/ha; for pest or weed control at 125 g/ha: 125 g ai/ha; for pest or weed control at 250 g/ha: 250 g ai/ha
Outline: as §1

[4] = test system: soybean (Glycine max); test: as above; conditions: Glycine max; for plant injury at 62 g/ha: 62 g ai/ha; for plant injury at 125 g/ha: 125 g ai/ha; for plant injury at 250 g/ha: 250 g ai/ha
Outline: as §1

[5] = test system: large (Lg) crabgrass (Digitaria sanguinalis); test: as above; conditions: Digitaria sanguinalis; for pest or weed control at 62 g/ha: 62 g ai/ha; for pest or weed control at 125 g/ha: 125 g ai/ha; for pest or weed control at 250 g/ha: 250 g ai/ha
Outline: as §1

[6] = test system: winter wheat (Triticum aestivum); test: as above; conditions: Triticum aestivum; for plant injury at 62 g/ha: 62 g ai/ha; for plant injury at 125 g/ha: 125 g ai/ha; for plant injury at 250 g/ha: 250 g ai/ha
Outline: as §1

[7] = test system: johnsongrass (Sorghum halepense); test: as above; conditions: Sorghum halepense; for pest or weed control at 62 g/ha: 62 g ai/ha; for pest or weed control at 125 g/ha: 125 g ai/ha; for pest or weed control at 250 g/ha: 250 g ai/ha
Outline: as §1

[8] = test system: blackgrass (Alopecurus myosuroides); test: as above; conditions: Alopecurus myosuroides; for pest or weed control at 62 g/ha: 62 g ai/ha; for pest or weed control at 125 g/ha: 125 g ai/ha; for pest or weed control at 250 g/ha: 250 g ai/ha
Outline: as §1

[9] = test system: pigweed (Amaranthus retroflexus); test: as above; conditions: Amaranthus retroflexus; for pest or weed control at 62 g/ha: 62 g ai/ha; for pest or weed control at 125 g/ha: 125 g ai/ha; for pest or weed control at 250 g/ha: 250 g ai/ha
Outline: as §1

[10] = test system: lambsquarters (Chenopodium album); test: as above; conditions: Chenopodium album; for pest or weed control at 62 g/ha: 62 g ai/ha; for pest or weed control at 125 g/ha: 125 g ai/ha; for pest or weed control at 250 g/ha: 250 g ai/ha
Outline: as §1

[11] = test system: oilseed rape (Brassica napus); test: as above; conditions: Preemergence
Outline: as §1

[12] = test system: kochia (Kochia scoparia); test: Test C postemergence greenhouse test, plant response rating 0-100; conditions: Bassia scoparia, post-emergence
Outline: (§2)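 Potted in peat/vermiculite mix; postemergence application at 1–4 leaves (2–18 cm); greenhouse 13–15 d; visual score 0–100 relative to untreated plants; dash = no test result.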

[13] = test system: chickweed (common chickweed, Stellaria media); test: as above; conditions: Stellaria media, post-emergence
Outline: as §2

[14] = test system: wild oat (Avena fatua); test: as above; conditions: Avena fatua, post-emergence
Outline: as §2

[15] = post-emergence, Postemergence, read-out: Plant response rating (0 to 100), Nutsedge, Yellow
[16] = post-emergence, Postemergence, scale 0 to 100
[17] = pre-emergence, Preemergence, read-out: Plant response rating, Nutsedge, Yellow
[18] = pre-emergence, Preemergence, 500 g ai/ha
[19] = post-emergence, Postemergence, read-out: Plant response rating (0 to 100), Foxtail, Giant
[20] = pre-emergence, Preemergence, read-out: Plant response rating, Foxtail, Giant
[21] = post-emergence, Postemergence, read-out: Plant response rating (0 to 100), Soybean
[22] = pre-emergence, Preemergence, read-out: Plant response rating, Soybean
[23] = post-emergence, Postemergence, read-out: Plant response rating (0 to 100), Crabgrass, Large
[24] = pre-emergence, Preemergence, read-out: Plant response rating, Crabgrass, Large
[25] = post-emergence, Postemergence, read-out: Plant response rating (0 to 100), Wheat
[26] = pre-emergence, Preemergence, read-out: Plant response rating, Wheat
[27] = post-emergence, Postemergence, read-out: Plant response rating (0 to 100), Johnsongrass
[28] = pre-emergence, Preemergence, read-out: Plant response rating, Johnsongrass
[29] = pre-emergence, Preemergence, read-out: Plant response rating, Blackgrass
[30] = post-emergence, Postemergence, read-out: Plant response rating (0 to 100), Pigweed
[31] = pre-emergence, Preemergence, read-out: Plant response rating, Pigweed
[32] = post-emergence, Postemergence, read-out: Plant response rating (0 to 100), Lambsquarters
[33] = pre-emergence, Preemergence, read-out: Plant response rating, Lambsquarters

With Clc1cc(Cl)cc(-c2n[nH]cc2C(=NN2CCCC2)c2ccccc2)c1 [Compound 30, N-[[3-(3,5-dichlorophenyl)-1H-pyrazol-4-yl]phenylmethylene]-1-pyrrolidinamine] the pest or weed control at 62 g/ha [1, 15] was 0%, the pest or weed control at 125 g/ha [1, 15] was 0% and the pest or weed control at 250 g/ha [1, 16] was 0%. The pest or weed control at 62 g/ha [1, 17] was 0%, the pest or weed control at 125 g/ha [1, 17] was 0% and the pest or weed control at 250 g/ha ([1]; pre-emergence, Preemergence) was 0%. The pest or weed control at 500 g/ha [1, 18] was 0%, the plant injury at 31 g/ha ([2]; post-emergence, Postemergence, 31 g ai/ha) was 0% and the plant injury at 62 g/ha ([2]; post-emergence, Postemergence, 62 g ai/ha) was 0%. The plant injury at 125 g/ha ([2]; post-emergence, Postemergence, 125 g ai/ha) was 0%, the Corn plant response rating (crop injury, 0 = no effect, 100 = complete kill) at 250 g/ha [2, 16] was 0% and the Corn plant response rating (crop injury, 0 = no effect, 100 = complete kill) at 62 g/ha ([2]; pre-emergence, Preemergence, 62 g ai/ha) was 0%. It also gave a Corn plant response rating (crop injury, 0 = no effect, 100 = complete kill) at 125 g/ha ([2]; pre-emergence, Preemergence, 125 g ai/ha) of 0%, a Corn plant response rating (crop injury, 0 = no effect, 100 = complete kill) at 250 g/ha ([2]; pre-emergence, Preemergence) of 0% and a Corn plant response rating (crop injury, 0 = no effect, 100 = complete kill) at 500 g/ha [2, 18] of 0%. The pest or weed control at 31 g/ha ([3]; post-emergence, Postemergence, 31 g ai/ha, read-out: Plant response rating (0 to 100), Foxtail, Giant) was 0%, the pest or weed control at 62 g/ha [3, 19] was 0% and the pest or weed control at 125 g/ha [3, 19] was 0%. The pest or weed control at 250 g/ha [3, 16] was 0%, the pest or weed control at 62 g/ha [3, 20] was 0% and the pest or weed control at 125 g/ha [3, 20] was 0%. It also gave a pest or weed control at 250 g/ha ([3]; pre-emergence, Preemergence) of 0%, a pest or weed control at 500 g/ha [3, 18] of 0% and a plant injury at 62 g/ha [4, 21] of 0%. It also gave a plant injury at 125 g/ha [4, 21] of 0%, a plant injury at 250 g/ha [4, 16] of 0% and a plant injury at 62 g/ha [4, 22] of 0%. It also gave a plant injury at 125 g/ha [4, 22] of 0%, a plant injury at 250 g/ha ([4]; pre-emergence, Preemergence) of 0% and a plant injury at 500 g/ha [4, 18] of 0%. For the same compound, the pest or weed control at 31 g/ha ([5]; post-emergence, Postemergence, 31 g ai/ha, read-out: Plant response rating (0 to 100), Crabgrass, Large) was 0%, the pest or weed control at 62 g/ha [5, 23] was 0% and the pest or weed control at 125 g/ha [5, 23] was 0%. It also gave a pest or weed control at 250 g/ha [5, 16] of 0%, a pest or weed control at 62 g/ha [5, 24] of 0% and a pest or weed control at 125 g/ha [5, 24] of 0%. It also gave a pest or weed control at 250 g/ha ([5]; pre-emergence, Preemergence) of 0%, a pest or weed control at 500 g/ha [5, 18] of 0% and a plant injury at 62 g/ha [6, 25] of 0%. For the same compound, the plant injury at 125 g/ha [6, 25] was 0%, the plant injury at 250 g/ha [6, 16] was 0% and the plant injury at 62 g/ha [6, 26] was 0%. It also gave a plant injury at 125 g/ha [6, 26] of 0%, a plant injury at 250 g/ha ([6]; pre-emergence, Preemergence) of 0% and a pest or weed control at 62 g/ha [7, 27] of 0%. For the same compound, the pest or weed control at 125 g/ha [7, 27] was 0%, the pest or weed control at 250 g/ha [7, 16] was 0% and the pest or weed control at 62 g/ha [7, 28] was 0%. For the same compound, the pest or weed control at 125 g/ha [7, 28] was 0%, the pest or weed control at 250 g/ha ([7]; pre-emergence, Preemergence) was 0% and the pest or weed control at 500 g/ha [7, 18] was 0%. It also gave a pest or weed control at 31 g/ha ([8]; post-emergence, Postemergence, 31 g ai/ha, read-out: Plant response rating (0 to 100), Blackgrass) of 0%, a pest or weed control at 62 g/ha ([8]; post-emergence, Postemergence, read-out: Plant response rating (0 to 100), Blackgrass) of 0% and a pest or weed control at 125 g/ha ([8]; post-emergence, Postemergence, scale 0 to 100, read-out: Plant response rating, Blackgrass) of 0%. It also gave a pest or weed control at 250 g/ha [8, 16] of 0%, a pest or weed control at 62 g/ha [8, 29] of 0% and a pest or weed control at 125 g/ha [8, 29] of 0%. It also gave a pest or weed control at 250 g/ha ([8]; pre-emergence, Preemergence) of 0%, a pest or weed control at 500 g/ha [8, 18] of 0% and a pest or weed control at 62 g/ha [9, 30] of 100%. For the same compound, the pest or weed control at 125 g/ha [9, 30] was 100%, the pest or weed control at 250 g/ha [9, 16] was 100% and the pest or weed control at 62 g/ha [9, 31] was 60%. It also gave a pest or weed control at 125 g/ha [9, 31] of 98%, a pest or weed control at 250 g/ha ([9]; pre-emergence, Preemergence) of 100% and a pest or weed control at 500 g/ha [9, 18] of 100%. It also gave a pest or weed control at 62 g/ha [10, 32] of 60%, a pest or weed control at 125 g/ha [10, 32] of 80% and a pest or weed control at 250 g/ha [10, 16] of 100%. It also gave a pest or weed control at 62 g/ha [10, 33] of 100%, a pest or weed control at 125 g/ha [10, 33] of 100% and a pest or weed control at 250 g/ha ([10]; pre-emergence, Preemergence) of 100%. For the same compound, the pest or weed control at 500 g/ha [10, 18] was 100%, the “Plant response rating, Oilseed Rape” value ([11]; 62 g ai/ha) was 50 and the “Plant response rating, Oilseed Rape” value ([11]; 125 g ai/ha) was 80. For the same compound, the “Plant response rating, Oilseed Rape” value ([11]; 250 g ai/ha) was 85, the “Plant response rating, Oilseed Rape” value ([11]; 500 g ai/ha) was 100 and the pest or weed control at 62 g/ha ([12]; 62 g ai/ha) was 40%. It also gave a pest or weed control at 125 g/ha ([12]; 125 g ai/ha) of 85%, a pest or weed control at 250 g/ha ([12]; 250 g ai/ha, scale 0 to 100) of 98% and a pest or weed control at 31 g/ha ([13]; 31 g ai/ha) of 100%. For the same compound, the pest or weed control at 62 g/ha ([13]; 62 g ai/ha) was 100%, the pest or weed control at 125 g/ha ([13]; 125 g ai/ha) was 100% and the pest or weed control at 250 g/ha ([13]; 250 g ai/ha, scale 0 to 100) was 100%. For the same compound, the pest or weed control at 62 g/ha ([14]; 62 g ai/ha) was 0%, the pest or weed control at 125 g/ha ([14]; 125 g ai/ha) was 0% and the pest or weed control at 250 g/ha ([14]; 250 g ai/ha, scale 0 to 100) was 0%.
